As a reminder, the IC50 is the concentration that gives 50% inhibition.

Molecules are shown by their SMILES.

The assay addresses T1, recombinant human cytosolic PEPCK (Homo sapiens, UniProt P35558).
T1 sequence (P35558 1-622): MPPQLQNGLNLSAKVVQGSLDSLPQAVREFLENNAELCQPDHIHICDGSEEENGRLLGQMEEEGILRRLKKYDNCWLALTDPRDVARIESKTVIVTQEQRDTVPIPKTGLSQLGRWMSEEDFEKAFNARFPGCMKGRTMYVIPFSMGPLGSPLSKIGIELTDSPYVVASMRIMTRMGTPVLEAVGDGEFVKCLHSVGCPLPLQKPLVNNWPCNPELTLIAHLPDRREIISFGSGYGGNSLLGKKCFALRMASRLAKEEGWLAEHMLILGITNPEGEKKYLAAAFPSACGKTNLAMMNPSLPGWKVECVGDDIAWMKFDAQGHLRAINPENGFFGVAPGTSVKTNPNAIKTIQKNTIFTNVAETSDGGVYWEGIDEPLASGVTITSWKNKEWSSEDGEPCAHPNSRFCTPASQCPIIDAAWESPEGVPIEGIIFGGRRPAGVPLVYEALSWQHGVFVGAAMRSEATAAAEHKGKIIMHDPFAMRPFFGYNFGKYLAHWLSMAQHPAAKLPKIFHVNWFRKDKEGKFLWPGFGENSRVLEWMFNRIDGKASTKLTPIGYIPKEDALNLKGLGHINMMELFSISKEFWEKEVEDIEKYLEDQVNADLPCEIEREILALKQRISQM
The experiment in a line: PEPCK enzyme assay (coupled pyruvate kinase/lactate dehydrogenase, absorbance at 340). Type of assay: biochemical. Conditions: recombinant human cytosolic GST-PEPCK; GTP and OAA at 3 fold and 10 fold Km; final DMSO 10%; room temperature, twenty minutes; read-out: In vitro IC50. As for the experimental part:
E. coli cells expressing GST-PEPCK were suspended in 5 volumes of lysis buffer (50 mM Tris-hydroxymethyl aminomethyl (TRIS), 150 mM sodium chloride (NaCl), 10 mM ethylene-diametetraacetic acid (EDTA), 5 mM dithiothreitol(DTT), 1% Nonidet P-40, pH 7.4) in the presence of protease inhibitors, incubated with lysozyme at 200 micrograms/ml for 30 min. at room temperature, and sonicated 4×30 seconds at 4 degrees C. After centrifugation at 12,000×g for 20 min. to remove insoluble material, the supernatant was loaded onto glutathione Sepharose (Pharmacia), washed with lysis buffer followed by washing with lysis buffer in the absence of NP-40. GST-PEPCK was eluted with the same buffer containing 20 mM glutathione. The eluted protein was concentrated and dialyzed against 25 mM Hepes(N-[2-hydroxyethyl]piperazine-N′[2-ethanesulfonic acid), 150 mM NaCl, 2.5 mM EDTA, 5 mM DTT, 30% glycerol, pH 7.4, and stored at −20 ° C.
The inhibitory effect of the compounds of the present invention on PEPCK enzymatic activity was determined using recombinant human cytosolic PEPCK, expressed and purified from E.coli as a GST-fusion. Guanosine triphosphate (GTP) and manganese dependent PEPCK enzyme activity catalyzed the decarboxylation of oxalacetate leading to the formation of guanosine diphosphate (GDP) and phosphoenol pyruvate (PEP). This reaction is coupled to pyruvate kinase and lactate dehydrogenase catalyzed reactions and the overall reaction rate determined by measuring the change in absorbance at 340 nm (Chang, H. C. and Lane M. D., J. Biol.Chem. 241:2413–2420, 1966). The following modifications were made to the protocol: 2.5 μg of recombinant, human cytosolic glutathione-S-transferase (GST)-PEPCK was added to a reaction mixture at room temperature which contained 0.3 mM GTP, 0.3 mM oxaloacetate (OAA), 3 mM magnesium chloride (MgCl2), 0.075 mM manganese chloride (MnCl2), 30 mM potassium phosphates (KPO4), pH 7.6, 1 mM dithiothreitol (DTT), 0.2 mM adenosine diphosphate (ADP), 1 mM nicotinamide adenine dinucleotide, reduced form (NADH), 0.9 Units/ml each of pyruvate kinase and lactate dehydrogenase and 1 mg/ml bovine serum albumin (BSA). Test compounds were added such that final concentration of DMSO was 10%. Reactions were run for twenty minutes.
Km values for GTP and OAA were determined according to Michelis-Menton conditions as described in Cornish-Bowden (Fundamentals of Enzyme Kinetics, 1995) in essentially the coupled assay conditions described above. […] Test compounds were added to reactions over a range of concentrations and IC50's were calculated from plots of inhibitor concentration versus enzyme rate. This method of determination of IC50 values is equally applicable to calculations based on PEPCK cellular assay.
The in vitro biological activity of several representative preferred compounds of the present invention in the foregoing PEPCK enzymatic assay is presented in Table 1.

Turning to `CC(=O)Nc1ccc(Cc2nc3c([nH]2)c(=O)n(Cc2ccccc2F)c(=O)n3C[C@@H]2C[C@@H]2C(=O)O)cc1` (relative stereo) [Example 47, 2-[8-(4-Acetylamino-benzyl)-1-(2-fluorobenzyl)-2,6-dioxo-1,2,6,7-tetrahydro-purin-3-ylmethyl]-cyclopropanecarboxylic acid], the IC50 was 560 nM.

`CC(=O)Nc1ccc(Cc2nc3c([nH]2)c(=O)n(Cc2ccccc2F)c(=O)n3CC2CC2)cc1` [Example 42, N-{4-[3-Cyclopropylmethyl-1-(2-fluorobenzyl)-2,6-dioxo-2,3,6,7-tetrahydro-1H-purin-8-ylmethyl]-phenyl}-acetamide]: the half-inhibitory concentration (IC50) stood at 930 nM.

`CC(=O)Nc1cccc(C(=O)N(C)c2ccc(Cc3nc4c([nH]3)c(=O)n(Cc3ccccc3F)c(=O)n4CC3CC3)cc2)n1` [Example 79, 6-Acetylamino-pyridine-2-carboxylic acid {4-[3-cyclopropylmethyl-1-(2-fluorobenzyl)-2,6-dioxo-2,3,6,7-tetrahydro-1H-purin-8-ylmethyl]-phenyl}-methyl-amide]: the half-maximal inhibitory concentration (IC50) worked out at 560 nM.

For the molecule `Cc1cncc(C(=O)N(C)c2ccc(Cc3nc4c([nH]3)c(=O)n(Cc3ccccc3F)c(=O)n4CC3CC3)cc2)c1` [Example 85, N-{4-[3-cyclopropylmethyl-1-(2-fluorobenzyl)-2,6-dioxo-2,3,6,7-tetrahydro-1H-purin-8-ylmethyl]-phenyl}-5,N-dimethyl-nicotinamide], the half-maximal inhibitory concentration (IC50) turned out to be 400 nM.

With `Cc1ccc(C(=O)N(C)c2ccc(Cc3nc4c([nH]3)c(=O)n(Cc3ccccc3F)c(=O)n4CC3CC3)cc2)cn1` [Example 86, N-{4-[3-cyclopropylmethyl-1-(2-fluorobenzyl)-2,6-dioxo-2,3,6,7-tetrahydro-1H-purin-8-ylmethyl]-phenyl}-6,N-dimethyl-nicotinamide], the IC50 worked out at 420 nM.

For `Cc1ccc(C(=O)N(C)c2ccc(Cc3nc4c([nH]3)c(=O)n(Cc3ccccc3F)c(=O)n4CC3CCC3)cc2)cn1` [Example 88, N-{4-[3-Cyclobutylmethyl-1-(2-fluorobenzyl)-2,6-dioxo-2,3,6,7-tetrahydro-1H-purin-8-ylmethyl]-phenyl}-6,N-dimethyl-nicotinamide], the IC50 worked out at 340 nM.

As to `COc1ccc(C(=O)N(C)c2ccc(Cc3nc4c([nH]3)c(=O)n(Cc3ccccc3F)c(=O)n4CC3CC3)cc2)c(OC)n1` [Example 90, N-{4-[3-cyclopropylmethyl-1-(2-fluorobenzyl)-2,6-dioxo-2,3,6,7-tetrahydro-1H-purin-8-ylmethyl]-phenyl}-2,6-dimethoxy-N-methyl-nicotinamide], the half-maximal inhibitory concentration (IC50) worked out at 340 nM.

With `CN(C(=O)Cc1cccnc1)c1ccc(Cc2nc3c([nH]2)c(=O)n(Cc2ccccc2F)c(=O)n3CC2CC2)cc1` [Example 91, N-{4-[3-cyclopropylmethyl-1-(2-fluorobenzyl)-2,6-dioxo-2,3,6,7-tetrahydro-1H-purin-8-ylmethyl]-phenyl}-N-methyl-2-pyridin-3-yl-acetamide], the IC50 stood at 410 nM.

Regarding `CN(C(=O)c1ccc(C#N)nc1)c1ccc(Cc2nc3c([nH]2)c(=O)n(Cc2ccccc2F)c(=O)n3CC2CC2)cc1` [Example 92, 6-Cyano-N-{4-[3-cyclopropylmethyl-1-(2-fluorobenzyl)-2,6-dioxo-2,3,6,7-tetrahydro-1H-purin-8-ylmethyl]-phenyl}-N-methyl-nicotinamide], the IC50 was 440 nM.

Turning to `CN(C(=O)c1cccnc1N)c1ccc(Cc2nc3c([nH]2)c(=O)n(Cc2ccccc2F)c(=O)n3CC2CC2)cc1` [Example 93, 2-Amino-N-{4-[3-cyclopropylmethyl-1-(2-fluorobenzyl)-2,6-dioxo-2,3,6,7-tetrahydro-1H-purin-8-ylmethyl]-phenyl}-N-methyl-nicotinamide], the IC50 turned out to be 280 nM.

For `CN(C(=O)c1ccc(N)nc1)c1ccc(Cc2nc3c([nH]2)c(=O)n(Cc2ccccc2F)c(=O)n3CC2CC2)cc1` [Example 94, 6-Amino-N-{4-[3-cyclopropylmethyl-1-(2-fluorobenzyl)-2,6-dioxo-2,3,6,7-tetrahydro-1H-purin-8-ylmethyl]-phenyl}-N-methyl-nicotinamide], the half-maximal inhibitory concentration (IC50) was 340 nM.

As for `Cc1ncccc1C(=O)N(C)c1ccc(Cc2nc3c([nH]2)c(=O)n(Cc2ccccc2F)c(=O)n3CC2CC2)cc1` [Example 95, N-{4-[3-Cyclopropylmethyl-1-(2-fluorobenzyl)-2,6-dioxo-2,3,6,7-tetrahydro-1H-purin-8-ylmethyl]-phenyl}-2,N-dimethyl-nicotinamide], the concentration for half-maximal inhibition (IC50) is 370 nM.

With `CN(C(=O)c1cncnc1)c1ccc(Cc2nc3c([nH]2)c(=O)n(Cc2ccccc2F)c(=O)n3CC2CC2)cc1` [Example 96, Pyrimidine-5-carboxylic acid {4-[3-cyclopropylmethyl-1-(2-fluorobenzyl)-2,6-dioxo-2,3,6,7-tetrahydro-1H-purin-8-ylmethyl]-phenyl}-methyl-amide], the concentration for half-maximal inhibition (IC50) stood at 380 nM.

Regarding `CN(C(=O)c1cccnc1)c1ccc(Cc2nc3c([nH]2)c(=O)n(Cc2ccccc2F)c(=O)n3CC2CC2)cc1` [Example 97, N-{4-[3-Cyclopropylmethyl-1-(2-fluorobenzyl)-2,6-dioxo-2,3,6,7-tetrahydro-1H-purin-8-ylmethyl]-phenyl}-N-methyl-nicotinamide], the 50% inhibitory concentration (IC50) came to 420 nM.

In the case of `CC(=O)Nc1ccc(C(=O)N(C)c2ccc(Cc3nc4c([nH]3)c(=O)n(Cc3ccccc3F)c(=O)n4CC3CC3)cc2)cn1` [Example 98, 6-Acetylamino-N-{4-[3-cyclopropylmethyl-1-(2-fluorobenzyl)-2,6-dioxo-2,3,6,7-tetrahydro-1H-purin-8-ylmethyl]-phenyl}-N-methyl-nicotinamide], the IC50 is 440 nM.

On to `CN(C(=O)c1cnccn1)c1ccc(Cc2nc3c([nH]2)c(=O)n(Cc2ccccc2F)c(=O)n3CC2CC2)cc1` [Example 99, Pyrazine-2-carboxylic acid {4-[3-cyclopropylmethyl-1-(2-fluorobenzyl)-2,6-dioxo-2,3,6,7-tetrahydro-1H-purin-8-ylmethyl]-phenyl}-methyl-amide], for which the IC50 was 460 nM.

Consider `CN(C(=O)c1ccc(O)nc1)c1ccc(Cc2nc3c([nH]2)c(=O)n(Cc2ccccc2F)c(=O)n3CC2CC2)cc1` [Example 100, N-{4-[3-Cyclopropylmethyl-1-(2-fluorobenzyl)-2,6-dioxo-2,3,6,7-tetrahydro-1H-purin-8-ylmethyl]-phenyl}-6-hydroxy-N-methyl-nicotinamide], for which the half-maximal inhibitory concentration (IC50) was found to be 550 nM.

With `CN(C(=O)c1cccnc1O)c1ccc(Cc2nc3c([nH]2)c(=O)n(Cc2ccccc2F)c(=O)n3CC2CC2)cc1` [Example 101, N-{4-[3-Cyclopropylmethyl-1-(2-fluorobenzyl)-2,6-dioxo-2,3,6,7-tetrahydro-1H-purin-8-ylmethyl]-phenyl}-2-hydroxy-N-methyl-nicotinamide], the IC50 turned out to be 630 nM.

Regarding `Cc1nn(C)c(C)c1C(=O)N(C)c1ccc(Cc2nc3c([nH]2)c(=O)n(Cc2ccccc2F)c(=O)n3CC2CC2)cc1` [Example 102, 1,3,5-Trimethyl-1H-pyrazole-4-carboxylic acid {4-[3-cyclopropylmethyl-1-(2-fluorobenzyl)-2,6-dioxo-2,3,6,7-tetrahydro-1H-purin-8-ylmethyl]-phenyl}-methyl-amide], the IC50 amounted to 230 nM.

(Values after patent US7135475B2, “Amide substituted xanthine derivatives” (Hoffmann-La Roche Inc., priority 2002, dated 2006).)
